Test results: US20230112444A1, “COMBINATION THERAPIES OF CHIMERIC ANTIGEN RECEPTORS TARGETING B-CELL […] AND GAMMA SECRETASE INHIBITORS” (priority 2020, published 2023)
pEC50: −log10 of the molar value. Where two headings read alike, the source gives them in different places.

Assays:
gamma secretase [1] = experiment: Surface BCMA by flow cytometry / inhibition of gamma secretase activity in MM.1S cells exposed to PF-03084014; type: cell-based, human
Method: (§1) The BCMA-expressing multiple myeloma cell lines MM.1S and Molp-8 (ATCC), and the BCMA-negative acute lymphocytic leukemia cell line REH (ATCC) were expanded in RPMI medium containing L-glutamine and 10% FBS in a humidified CO2 incubator set to 37 degrees. The gamma secretase inhibitor (GSI) PF-03084014 (nirogacestat in the hydrobromide salt form, Sigma-Aldrich, #PZ0298) was diluted in H2O at mg/mL and further diluted in cell culture medium as needed. Cells were cultured in the presence of increasing concentrations of PF-03084014 or vehicle (control) in a humidified CO2 incubator set to 37° C. for 4 hours or 24 hours. Cells were then harvested by centrifugation for 5 min at 400×g and stained with a phycoerythrin (PE)-labeled anti-human BCMA antibody (BioLegend, Cat #357504) for 30 min at 4° C. Samples were analyzed by flow cytometry using a Cytoflex flow cytometer (Beckman Coulter) and expression levels of BCMA (mean fluorescence intensity, MFI) were determined using FlowJo version 10.4.1. Fold-change in surface BCMA was calculated as the MFI value of GSI-treated cells divided by the MFI value of cells receiving vehicle control. Maximal (100%) inhibition of gamma-secretase activity was defined as the maximal fold-change in surface BCMA. To obtain half-maximal effective concentration (EC50) values, gMFI was plotted as a function of the logarithm of the concentration of PF-03084014. The data was then fitted using a non-linear regression (four-parameter logistic curve) function and EC50 was calculated using GraphPad.
(§2) In a separate experiment, cytolytic activities of BCMA CAR-T cells were evaluated after the target multiple myeloma cells were first pre-incubated with PF-03084014. FIG. 25A depicts the cell surface expression level of BCMA on the multiple myeloma cell line MM.1S and the BCMA negative control cell line […] after a 24-hour culture in the presence of increasing concentrations of the gamma secretase inhibitor PF-03084014. The data is shown as mean fluorescence intensity (MFI) values of BCMA. FIG. 25B depicts the cytolytic activity of BCMA CAR T cells against MM.1S cells previously treated with PF-03084014 for 24 hours. In the cytolytic assay, BCMA CAR T cells and target cells were co-cultured at different effector to target (E:T) ratios for 24 hours and residual target cell viability was measured using bioluminescence. Results are shown as mean+/−SEM.

gamma secretase [2] = experiment: Surface BCMA by flow cytometry / inhibition of gamma secretase activity in Molp-8 cells exposed to PF-03084014; type: cell-based, human
Method: as §1

BCMA-negative REH cells = experiment: Surface BCMA by flow cytometry in BCMA-negative REH control cells exposed to PF-03084014; type: cell-based, human; conditions: REH negative control cell line, 4-hour treatment
Method: as §1, with “To obtain half-maximal effective concentration (EC50) values, gMFI was plotted as a function of the logarithm of the concentration of PF-03084014.” left out

BCMA CAR-T cells = experiment: Target-dependent BCMA CAR-T cell proliferation in the presence of PF-03084014 (co-culture with REH-BCMA cells); type: cell-based, human; conditions: Day 5, up to the highest concentration (FIG. 23)
From the text: A BCMA-negative acute lymphocytic leukemia cell line (REH) was genetically modified to overexpress BCMA with the use of a lentiviral vector encoding the human BCMA protein under regulatory control of the EF1alpha promoter (REH-BCMA cells). BCMA-overexpressing cells co-expressing luciferase and green fluorescent protein (GFP) were then created by transducing the cells with a Luc2AGFP/Blasticidin lentiviral vector following the manufacturer's recommendations. The exemplary BCMA CAR tested in the experiments comprises the VH amino acid sequence of SEQ ID NO: 33 and VL amino acid sequence of SEQ ID NO: 34). The BCMA CAR-T cells were generated and cryopreserved as previously described (Sommer et al., Molecular Therapy 2019, 27 (6): 1126-1138), thawed, and used in the assays as follows. Briefly, 5×10^5 CAR^+ T cells were co-cultured with 2×10^6 REH-BCMA cells in 2.5 mL of target cell medium (RPMI with L-glutamine, 10% FBS) without IL-2 using G-Rex 24-well plates. PF-03084014 was added to cells at increasing concentrations whereas the control wells received vehicle. […] On Day 5, cells were counted and the percentage of residual target cells and CAR-T cells were determined by flow cytometry analysis. […] Target-cell dependent proliferation/persistence in the presence or absence of PF-03084014 was determined by dividing the total number of CAR^+ cells by the starting cell number (5×10^5).

[3] = system: MM.1S, Molp-8 and REH-BCMA cells; experiment: In vitro cytolytic activity of BCMA CAR-T cells in the presence of PF-03084014 (luciferase); type: cell-based, human; conditions: PF-03084014 0.01 μM to 10 μM added during 24 hour co-culture, E:T 1:3, 1:1, 3:1 (FIG. 24)
Method: The multiple myeloma cell lines MM.1S and Molp-8 and the BCMA-overexpressing REH cell line (REH-BCMA cells) were used in these assays. The target cell lines have been modified to constitutively express the luciferase gene which allows assessment of cell viability via luminescence. The cytotoxic activity of BCMA CAR-T cells was determined by measuring the reduction of luminescence signal from live target cells after 24 hour co-culture with BCMA CAR-T cells at increasing effector to target (E:T) ratios (1:3, 1:1, 3:1). Briefly, 2×10^4 luciferase-expressing target cells were co-cultured with BCMA CAR-T cells at defined E:T ratios in target cell culture medium (RPMI with L-glutamine, 10% FBS) without IL-2. The GSI PF-03084014 was added to wells at increasing concentrations (0.01 μM to 10 μM) and cells were cultured in a humidified CO2 incubator set to 37° C. for 24 hours. Following the incubation period, 100 μL of Bright-GLO reagent (Promega) were added and luminescence was read on a luminometer (Spectramax; Molecular Devices). Relative luminescence units (RLU) were converted to percentage of lysed target cells using the formula 100×[1−(RLUtest/RLUcontrol)]. Untreated target cells were used to determine RLU control.

MM.1S cells = experiment: Cytolytic activity of BCMA CAR T cells against target cells pre-incubated with PF-03084014; type: cell-based, human; conditions: MM.1S target cells pre-incubated with PF-03084014 for 24 hours, then 24 hours co-culture (FIG. 25B)
Method: as §2

[4] = Phase 1 dose-finding study (A8641014) of nirogacestat, minimum concentration; type: in vivo, human; conditions: 100 mg BID, solid tumor patients; conversion of ng/mL value
Method: See, e.g., FIG. 22C. […] A dose of 100 mg BID nirogacestat is expected to maintain serum concentrations of nirogacestat at or above the levels required to prevent the cleavage of BCMA by gamma secretase, thereby leading to reduced soluble BCMA and increased membrane-bound BCMA.

[5] = 100 mg BID, solid tumor patients; cited from earlier work
[6] = 4-hour treatment, dose-dependent (FIG. 22A)

Structure (SMILES): CCC[C@H](N[C@H]1CCc2cc(F)cc(F)c2C1)C(=O)Nc1cn(C(C)(C)CNCC(C)(C)C)cn1 [PF-03084014, nirogacestat]
- Levels of BCMA on the cell surface (gamma secretase [1]; [6]): increased levels of BCMA detected on the cell surface
- Levels of BCMA on multiple myeloma cells (MFI) (gamma secretase [1]; 24 hours incubation (FIG. 25A)): increased levels of BCMA
- Inhibition of gamma secretase activity (gamma secretase [1]; 24 hours treatment (FIG. 22C)): dose-dependent inhibition of gamma secretase activity
- pEC50 (gamma secretase [1]; 24 hours treatment, flow cytometry of surface BCMA, read-out: EC50 on gamma secretase (surface BCMA) determined using the MM.1S cell line): 9.92
- Levels of BCMA on the cell surface (gamma secretase [2]; [6]): increased levels of BCMA detected on the cell surface
- Inhibition of gamma secretase activity (gamma secretase [2]; 24 hours treatment (FIG. 22C)): dose-dependent inhibition of gamma secretase activity
- pEC50 (gamma secretase [2]; 24 hours treatment, flow cytometry of surface BCMA, read-out: EC50 on gamma secretase (surface BCMA) determined using the Molp-8 cell line): 7.65
- Dose-dependent increase of BCMA on the cell surface (BCMA-negative REH cells): not seen
- Effect on target-dependent BCMA CAR-T cell expansion (BCMA CAR-T cells): did not negatively affect CAR-T cell expansion
- Effect on target cell killing by BCMA CAR-T cells [3]: enhanced target cell killing was not observed
- Effect on cytolytic activity of BCMA CAR T cells (MM.1S cells): enhanced cytolytic effect
- Minimum concentration (Cmin) [4]: approximately 480 nM
- Minimum concentration (Cmin) [5]: 232 ng/mL
